Test results as given in US9464110B2, “Acyl dipeptide derivative” (AJINOMOTO CO., INC., priority 2012, dated 2016).
In brackets after ≈: the same amount, converted by molar mass. Where a SMILES comes first, the peptide text is derived from it. The star is where a group is joined. Decanoyl = CCCCCCCCCC(=O)*

Key:
Propionibacterium acnes = assay: minimal growth inhibitory concentration (MIC) test, agar dilution; format: cell-based; conditions: Cutibacterium acnes; GAM agar medium, 35° C., 48 hr anaerobic culture; read-out: minimal growth inhibitory concentration against Propionibacterium acnes
Experimental: (§1) The compound of Synthetic Example 1 was subjected to a minimal growth inhibitory concentration (MIC) test against Propionibacterium acnes (P. acnes) and Trichophyton mentagrophytes (T. mentagrophytes). The test method is shown below. (1) Preparation of Test Bacterial Culture Propionibacterium acnes: Anaerobically cultured in a GAM agar medium at 35° C. for 48 hr. A part thereof was transplanted into a GAM bouillon medium, and anaerobically cultured at 35° C. for 24 hr. The culture medium was diluted with GAM bouillon medium to adjust to about 10^6 cells/mL and used as a test bacterial culture. Trichophyton mentagrophytes: Test bacteria were cultured in a Sabouraud glucose agar medium at 25° C. for 7-14 days, spore and hypha pick were scraped with a platinum loop, suspended in polysorbate 80 0.05% sterile saline and ground in a homogenizer. The solution was filtered through sterile gauze folded in four, and diluted with polysorbate 80 0.05% sterile saline to adjust to about 10^6 cells/mL and used as a test bacterial culture. (2) Preparation of Antimicrobial Agent Dilution Solution A sample was diluted with sterile purified water to prepare a 100000-1000 μg (active ingredient)/mL dilution series. (3) Preparation of Antimicrobial Agent-Added Agar Medium The agar medium was dispensed by 9.0 mL into a test tube and, after autoclave sterilization, and incubated in a molten state at 50° C. […]

[1] = system: Trichophyton mentagrophytes; assay: as above; format: cell-based; conditions: 168 h, Sabouraud glucose agar medium, 25° C., 7 days, read-out: minimal growth inhibitory concentration against Trichophyton mentagrophytes
Experimental: as §1

CCCCCCCCCC(=O)N1CCC[C@H]1C(=O)N1CCC[C@H]1C(=O)O [Synthetic Example 1, decanoyl prolylproline] (Decanoyl-Pro-Pro-OH)
MIC (Propionibacterium acnes): 2000 to 3000 µg/mL (≈ 5.46 to 8.19 mM) | MIC [1]: 1000 to 1500 µg/mL (≈ 2.73 to 4.09 mM)
